Test results reported in PubChem BioAssay AID2060508 (Molecular Pharmacology Branch, DTP, NCI, 2025).
pIC50: −log10 of the molar value.

System: 454973-116-R2-J3-PDC spheroids, viability, % test/control
Assay: Anticancer human tumor 454973-116-R2-J3-PDC patient-derived pancreatic carcinoma cell line growth inhibition [GQUAD]
Conditions: spheroids with HUVEC and MSC; for pIC50: curve of first compound; for viability, T/C: stronger effect = lower value
Outline: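 Tumor cells were grown as complex spheroids with HUVEC endothelial cells and mesenchymal stem cells as stroma. G-quadruplex stabilizers were combined with targeted agents over half-log dilutions from near the clinical Cmax, or from 10 microM.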

[1] = second compound 0.0316 µM, first compound 0.0316 µM
[2] = second compound 0.0316 µM, first compound 0.316 µM
[3] = second compound 0.1 µM, first compound 0.0316 µM
[4] = second compound 0.1 µM, first compound 0.316 µM
[5] = second compound 0.316 µM, first compound 0.0316 µM
[6] = second compound 0.316 µM, first compound 0.316 µM
[7] = second compound 1 µM, first compound 0.0316 µM
[8] = second compound 1 µM, first compound 0.316 µM
[9] = second compound 3.16 µM, first compound 0.0316 µM
[10] = second compound 3.16 µM, first compound 0.316 µM
[11] = second compound 10 µM, first compound 0.0316 µM
[12] = second compound 10 µM, first compound 0.316 µM
[13] = second compound 0.0316 µM, first compound 0.1 µM
[14] = second compound 0.0316 µM, first compound 1 µM
[15] = second compound 0.0316 µM, first compound 3.16 µM
[16] = second compound 0.0316 µM, first compound 10 µM
[17] = second compound 0.1 µM, first compound 0.1 µM
[18] = second compound 0.1 µM, first compound 1 µM
[19] = second compound 0.1 µM, first compound 3.16 µM
[20] = second compound 0.1 µM, first compound 10 µM
[21] = second compound 0.316 µM, first compound 0.1 µM
[22] = second compound 0.316 µM, first compound 1 µM
[23] = second compound 0.316 µM, first compound 3.16 µM
[24] = second compound 0.316 µM, first compound 10 µM
[25] = second compound 1 µM, first compound 0.1 µM
[26] = second compound 1 µM, first compound 1 µM
[27] = second compound 1 µM, first compound 3.16 µM
[28] = second compound 1 µM, first compound 10 µM
[29] = second compound 3.16 µM, first compound 0.1 µM
[30] = second compound 3.16 µM, first compound 1 µM
[31] = second compound 3.16 µM, first compound 3.16 µM
[32] = second compound 3.16 µM, first compound 10 µM
[33] = second compound 10 µM, first compound 0.1 µM
[34] = second compound 10 µM, first compound 1 µM
[35] = second compound 10 µM, first compound 3.16 µM
[36] = second compound 10 µM, first compound 10 µM
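Also: spheroids exposed to compounds for seven days.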
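For viability, T/C in this document: 100% = DMSO vehicle control viability.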

In the case of `CC[C@@]1(O)C(=O)OCc2c1cc1n(c2=O)Cc2cc3c(CN(C)C)c(O)ccc3nc2-1` + Cc1[nH]c2ccc(F)cc2c1-c1nc2c3cccnc3c3ncccc3c2[nH]1, the pIC50 (second compound 0.0316 µM) was 7.28, the pIC50 (second compound 0.1 µM) was 7.32 and the pIC50 (second compound 0.316 µM) was 7.34. For the same molecule, the pIC50 (second compound 1 µM) was 7.35, the pIC50 (second compound 3.16 µM) was 7.28 and the pIC50 (second compound 10 µM) was 7.42. The viability, T/C (second compound 0.0316 µM, first compound 0.000999 µM) was 97.3%, the viability, T/C (second compound 0.0316 µM, first compound 0.00316 µM) was 95.9% and the viability, T/C (second compound 0.0316 µM, first compound 0.00999 µM) was 94.7%. For the same molecule, the viability, T/C [1] was 69.2%, the viability, T/C (second compound 0.0316 µM, first compound 0.0999 µM) was 25% and the viability, T/C [2] was 26.9%. The viability, T/C (second compound 0.1 µM, first compound 0.000999 µM) was 114%, the viability, T/C (second compound 0.1 µM, first compound 0.00316 µM) was 93.7% and the viability, T/C (second compound 0.1 µM, first compound 0.00999 µM) was 102%. For the same molecule, the viability, T/C [3] was 66%, the viability, T/C (second compound 0.1 µM, first compound 0.0999 µM) was 20.8% and the viability, T/C [4] was 21.8%. It also gave a viability, T/C (second compound 0.316 µM, first compound 0.000999 µM) of 102%, a viability, T/C (second compound 0.316 µM, first compound 0.00316 µM) of 119% and a viability, T/C (second compound 0.316 µM, first compound 0.00999 µM) of 92.7%. For the same molecule, the viability, T/C [5] was 65%, the viability, T/C (second compound 0.316 µM, first compound 0.0999 µM) was 19.7% and the viability, T/C [6] was 20.7%. The viability, T/C (second compound 1 µM, first compound 0.000999 µM) was 103%, the viability, T/C (second compound 1 µM, first compound 0.00316 µM) was 99.3% and the viability, T/C (second compound 1 µM, first compound 0.00999 µM) was 94.6%. It also gave a viability, T/C [7] of 62.4%, a viability, T/C (second compound 1 µM, first compound 0.0999 µM) of 19.6% and a viability, T/C [8] of 20.7%. It also gave a viability, T/C (second compound 3.16 µM, first compound 0.000999 µM) of 97.7%, a viability, T/C (second compound 3.16 µM, first compound 0.00316 µM) of 101% and a viability, T/C (second compound 3.16 µM, first compound 0.00999 µM) of 85%. The viability, T/C [9] was 70.9%, the viability, T/C (second compound 3.16 µM, first compound 0.0999 µM) was 20.8% and the viability, T/C [10] was 25.2%. The viability, T/C (second compound 10 µM, first compound 0.000999 µM) was 100%, the viability, T/C (second compound 10 µM, first compound 0.00316 µM) was 83.9% and the viability, T/C (second compound 10 µM, first compound 0.00999 µM) was 82.3%. It also gave a viability, T/C [11] of 56.7%, a viability, T/C (second compound 10 µM, first compound 0.0999 µM) of 23.2% and a viability, T/C [12] of 23%.
Molecule `COc1cc(C2c3cc4c(cc3C(OC3OC5COC(C)OC5C(O)C3O)C3COC(=O)C23)OCO4)cc(OC)c1O` (stereo unspecified) + Cc1[nH]c2ccc(F)cc2c1-c1nc2c3cccnc3c3ncccc3c2[nH]1 has a pIC50 (second compound 0.0316 µM) of 5.95, a pIC50 (second compound 0.1 µM) of 5.89 and a pIC50 (second compound 0.316 µM) of 5.93. For the same molecule, the pIC50 (second compound 1 µM) was 5.95, the pIC50 (second compound 3.16 µM) was 6.00 and the pIC50 (second compound 10 µM) was 5.93. For the same molecule, the viability, T/C [1] was 112%, the viability, T/C [13] was 92.4% and the viability, T/C [2] was 99.7%. It also gave a viability, T/C [14] of 52%, a viability, T/C [15] of 22.7% and a viability, T/C [16] of 13.3%. It also gave a viability, T/C [3] of 103%, a viability, T/C [17] of 92.3% and a viability, T/C [4] of 88%. The viability, T/C [18] was 56.8%, the viability, T/C [19] was 25.6% and the viability, T/C [20] was 13.3%. The viability, T/C [5] was 106%, the viability, T/C [21] was 101% and the viability, T/C [6] was 83.7%. The viability, T/C [22] was 55.6%, the viability, T/C [23] was 23.9% and the viability, T/C [24] was 12.4%. For the same molecule, the viability, T/C [7] was 93.7%, the viability, T/C [25] was 98.3% and the viability, T/C [8] was 86.2%. It also gave a viability, T/C [26] of 53.5%, a viability, T/C [27] of 21.2% and a viability, T/C [28] of 13.5%. It also gave a viability, T/C [9] of 115%, a viability, T/C [29] of 94.7% and a viability, T/C [10] of 98.7%. The viability, T/C [30] was 48.5%, the viability, T/C [31] was 22.9% and the viability, T/C [32] was 13.4%. The viability, T/C [11] was 97.1%, the viability, T/C [33] was 84.4% and the viability, T/C [12] was 80.7%. It also gave a viability, T/C [34] of 55.3%, a viability, T/C [35] of 23% and a viability, T/C [36] of 13.2%.
Work on `COc1cccc2c1C(=O)c1c(O)c3c(c(O)c1C2=O)CC(O)(C(=O)CO)CC3OC1CC(N)C(O)C(C)O1` (stereo unspecified) + Cc1[nH]c2ccc(F)cc2c1-c1nc2c3cccnc3c3ncccc3c2[nH]1 yielded a pIC50 (second compound 0.0316 µM) of 6.78, a pIC50 (second compound 0.1 µM) of 6.73 and a pIC50 (second compound 0.316 µM) of 6.81. It also gave a pIC50 (second compound 1 µM) of 6.84, a pIC50 (second compound 3.16 µM) of 6.84 and a pIC50 (second compound 10 µM) of 6.80. The viability, T/C [1] was 106%, the viability, T/C [13] was 63.1% and the viability, T/C [2] was 30.4%. The viability, T/C [14] was 22.6%, the viability, T/C [15] was 11.4% and the viability, T/C [16] was 0.63%. For the same molecule, the viability, T/C [3] was 97.8%, the viability, T/C [17] was 69.8% and the viability, T/C [4] was 27.2%. The viability, T/C [18] was 28.9%, the viability, T/C [19] was 11% and the viability, T/C [20] was 0.58%. The viability, T/C [5] was 96.5%, the viability, T/C [21] was 59.7% and the viability, T/C [6] was 27.6%. For the same molecule, the viability, T/C [22] was 28.2%, the viability, T/C [23] was 11.8% and the viability, T/C [24] was 0.44%. It also gave a viability, T/C [7] of 90.6%, a viability, T/C [25] of 61.4% and a viability, T/C [8] of 24.3%. It also gave a viability, T/C [26] of 26.2%, a viability, T/C [27] of 11.1% and a viability, T/C [28] of 0.62%. The viability, T/C [9] was 93.1%, the viability, T/C [29] was 59.6% and the viability, T/C [10] was 27.6%. It also gave a viability, T/C [30] of 24.4%, a viability, T/C [31] of 14.8% and a viability, T/C [32] of 0.52%. The viability, T/C [11] was 81.9%, the viability, T/C [33] was 64.7% and the viability, T/C [12] was 27%. The viability, T/C [34] was 27.1%, the viability, T/C [35] was 11.5% and the viability, T/C [36] was 0.75%.
